According to patent US5955464A, “4-anilinoquinazoline derivatives bearing a heteroaryl substituted at the 6-position and possessing anti-cell-proliferation properties” (Zeneca Limited, priority 1994, dated 1999):
Values belong to the compound of their own block, whether it stands above or below them.

Key:
[1] = test system: EGF receptor tyrosine kinase; conditions: in words; Fry et al., Science, 1994, 265, 1093; cited from earlier work
liver hepatocyte growth = test: in vivo assay in male rats of inhibition of TGFα-stimulated liver hepatocyte growth (Test (c)); conditions: Rattus norvegicus, usually oral, inhibition of BrdU uptake, approximate ED50
Description: (c) An in vivo assay in a group of male rats which determines the ability of a test compound (usually administered orally as a ball-milled suspension in 0.5% polysorbate) to inhibit the stimulation of liver hepatocyte growth caused by the administration of the growth factor TGFα (400 μg/kg subcutaneously, usually dosed twice, 3 and 7 hours respectively after the administration of the test compound).
In a control group of rats, the administration of TGFα causes on average a 5-fold stimulation of liver hepatocyte growth.
Cell-growth in the control and test animals is determined as follows:
On the morning of the day after the dosing of the test compound (or 0.5% polysorbate in the control group), the animals are dosed with bromodeoxyuridine (BrdU; 100 mg/kg intraperitoneally). The animals are killed four hours later and the livers are excised. […] Further tests were carried out using a range of doses of the test compounds to allow the calculation of an approximate ED50 value for the inhibition of liver hepatocyte proliferation as determined by inhibition of the uptake of BrdU.

[2] = target: T1, EGF receptor tyrosine kinase (Homo sapiens, UniProt P00533); test: in vitro assay of inhibition of the enzyme EGF receptor tyrosine kinase (Test (a)); type: biochemical; conditions: EGF receptor tyrosine kinase from A-431 cells
T1 construct: Receptor tyrosine kinase was obtained in partially purified form from A-431 cells; endogenous in cells; host or cells: A-431 cells (human vulval carcinoma), Triton X-100-solubilised membrane fraction
T1 sequence (P00533 25-1210): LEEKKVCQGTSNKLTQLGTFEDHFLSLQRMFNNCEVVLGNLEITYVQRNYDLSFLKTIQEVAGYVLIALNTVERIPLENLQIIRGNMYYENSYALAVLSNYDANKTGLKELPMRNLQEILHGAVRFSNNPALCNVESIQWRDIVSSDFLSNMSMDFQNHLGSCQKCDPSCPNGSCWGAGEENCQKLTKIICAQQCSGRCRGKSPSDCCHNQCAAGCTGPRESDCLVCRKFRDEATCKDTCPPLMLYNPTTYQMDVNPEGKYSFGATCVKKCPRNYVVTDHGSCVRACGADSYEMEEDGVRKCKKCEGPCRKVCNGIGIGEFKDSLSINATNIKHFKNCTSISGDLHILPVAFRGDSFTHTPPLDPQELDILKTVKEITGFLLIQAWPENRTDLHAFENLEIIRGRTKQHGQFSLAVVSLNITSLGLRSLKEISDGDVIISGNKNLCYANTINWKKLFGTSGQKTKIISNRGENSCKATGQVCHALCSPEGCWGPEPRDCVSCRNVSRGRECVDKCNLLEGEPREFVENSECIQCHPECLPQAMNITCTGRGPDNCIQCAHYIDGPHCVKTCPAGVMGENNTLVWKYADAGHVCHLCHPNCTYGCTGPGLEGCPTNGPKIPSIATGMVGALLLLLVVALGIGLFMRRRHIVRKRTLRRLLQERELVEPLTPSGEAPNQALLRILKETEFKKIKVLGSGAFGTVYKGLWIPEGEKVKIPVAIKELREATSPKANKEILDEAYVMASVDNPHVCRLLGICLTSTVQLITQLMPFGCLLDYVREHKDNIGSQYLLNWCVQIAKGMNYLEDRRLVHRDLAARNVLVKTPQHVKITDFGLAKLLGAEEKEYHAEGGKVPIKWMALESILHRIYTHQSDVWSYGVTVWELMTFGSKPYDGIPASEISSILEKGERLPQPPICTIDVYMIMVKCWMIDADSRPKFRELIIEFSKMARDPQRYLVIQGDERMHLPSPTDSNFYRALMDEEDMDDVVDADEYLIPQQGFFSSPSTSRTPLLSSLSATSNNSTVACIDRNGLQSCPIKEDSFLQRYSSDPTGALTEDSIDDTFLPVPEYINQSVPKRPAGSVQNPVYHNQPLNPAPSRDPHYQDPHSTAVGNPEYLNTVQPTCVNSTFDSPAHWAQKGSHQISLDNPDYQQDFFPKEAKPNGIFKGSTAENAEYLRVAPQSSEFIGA
T1 sequence (P01133 971-1023 partner limits assumed): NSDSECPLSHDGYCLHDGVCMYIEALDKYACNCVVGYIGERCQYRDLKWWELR
Description: (a) An in vitro assay which determines the ability of a test compound to inhibit the enzyme EGF receptor tyrosine kinase. Receptor tyrosine kinase was obtained in partially purified form from A-431 cells (derived from human vulval carcinoma) by the procedures described below which are related to those described by Carpenter et al., J. Biol. Chem., 1979, 254, 4884, Cohen et al, J. Biol. Chem., 1982, 257, 1523 and by Braun et al., J. Biol. Chem., 1984, 259, 2051.
A-431 cells were grown to confluence using Dulbecco's modified Eagle's medium (DMEM) containing 5% fetal calf serum (FCS). The obtained cells were homogenised in a hypotonic borate/EDTA buffer at pH 10.1. The homogenate was centrifuged at 400 g for 10 minutes at 0-4° C. The supernatant was centrifuged at 25,000 g for 30 minutes at 0-4° C. […]
The test compound/EGF mixture solution (5 μl) was added to the test enzyme solution (10 μl) and the mixture was incubated at 0-4° C. for 30 minutes. […] Radioactivity present in the filter paper was measured using a liquid scintillation counter (Sequence A). […]
Receptor tyrosine kinase inhibition was calculated as follows: [formula]
The extent of inhibition was then determined at a range of concentrations of test compound to give an IC50 value.

[3] = test system: xenografts of the human vulval epidermoid carcinoma cell line A431; test: in vivo assay in athymic nude mice of inhibition of growth of A431 xenografts (Test (d)); parameters: species or system athymic nude mice (human A431 xenograft); conditions: 200 mg/kg/day, once daily, usually oral
Description: (d) An in-vivo assay in a group of athymic nude mice (strain ONU:Alpk) which determines the ability of a test compound (usually administered orally as a ball-milled suspension in 0.5% polysorbate) to inhibit the growth of xenografts of the human vulval epidermoid carcinoma cell line A431.
A431 cells were maintained in culture in DMEM supplemented with 5% FCS and 2 mM glutamine. Freshly cultured cells were harvested by trypsinization and injected subcutaneously (10 million cells/0.1 ml/mouse) into both flanks of a number of donor nude mice. When sufficient tumour material was available (after approximately 9 to 14 days), fragments of tumour tissue were transplanted into the flanks of recipient nude mice (test day 0). On the eighth day after transplantation (test day 7) groups of 8 to 10 mice with similar-sized tumours were selected and dosing of the test compound was commenced. Once-daily dosing of test compound was continued for a total of 13 days (test days 7 to 19 inclusive). In some studies the dosing of the test compound was continued beyond test day 19, for example to test day 26. In each case, on the following day the animals were killed and final tumour volume was calculated from measurements of the length and width of the tumours. Results were calculated as a percentage inhibition of tumour volume relative to untreated controls.

KB cells = test: in vitro assay of inhibition of EGF-stimulated growth of the human naso-pharyngeal cancer cell line KB (Test (b)); type: cell-based; conditions: 72 h, EGF 10 ng/ml, 3 days
Description: (b) An in vitro assay which determines the ability of a test compound to inhibit the EGF-stimulated growth of the human naso-pharyngeal cancer cell line KB. KB cells were seeded into wells at a density of 1×10^4 -1.5×10^4 cells per well and grown for 24 hours in DMEM supplemented with 5% FCS (charcoal-stripped). Cell growth was determined after incubation for 3 days by the extent of metabolism of MTT tetrazolium dye to furnish a bluish colour. Cell growth was then determined in the presence of EGF (10 ng/ml) or in the presence of EGF (10 ng/ml) and a test compound at a range of concentrations. An IC50 value could then be calculated.

[4] = test system: human mammary carcinoma which expresses EGF receptor tyrosine kinase; conditions: athymic nude mice; Toi et al., 1990; cited from earlier work
[5] = test system: another carcinoma which does not express EGF receptor tyrosine kinase; conditions: athymic nude mice; Toi et al., 1990; cited from earlier work

SMILES: COc1cc2ncnc(Nc3cccc(Br)c3)c2cc1OC [4-(3-bromoanilino)-6,7-dimethoxyquinazoline]
- inhibition of EGF receptor tyrosine kinase [1]: highly potent inhibitor

- IC50 [2]: 26 nM
- IC50 (KB cells): 510 nM
SMILES: Cc1cccc(Nc2ncnc3ccc(-n4ccnc4)cc23)c1 [4-(3-methylanilino)-6-(1-imidazolyl)quinazoline]
- ED50 (liver hepatocyte growth): < 12.5 mg/kg
- inhibition in Test (d) (percentage inhibition of tumour volume) [3]: 63%

SMILES: O=CN/C=C/c1cc(O)ccc1O [erbstatin]
- growth of transplanted human mammary carcinoma expressing EGF receptor tyrosine kinase [4]: specifically attenuates the growth
- growth of another carcinoma not expressing EGF receptor tyrosine kinase [5]: without effect on the growth
